From PMC7932537, “Quantitative profiling of protease specificity” (PLoS Computational Biology, 2021) come the findings set out here.

Assay [1] concerns MMP-9. Nature of the assay: Substrate phage display with NGS: relative probability (RP) of P3-P1' tetramer clusters.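 Also: ratio of tetramer probability after protease selection to that in naive phage library.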 In kind it is biochemical, human. The settings on record: MMP9; RP of the substrate's P3-P1' tetramer, substrate phage display with NGS.
For assay [2], the target named is MMP-9 (Homo sapiens, UniProt P14780). Nature of the assay: K(obs) of individual phage substrates (set of 1369). The note with it: MMP9; individual phage substrate of the set of 1369 peptides; dash in sequence marks cleavage position. The assay is classed as biochemical.
Chain of MMP-9 (Homo sapiens, UniProt P14780) (P14780 94-707): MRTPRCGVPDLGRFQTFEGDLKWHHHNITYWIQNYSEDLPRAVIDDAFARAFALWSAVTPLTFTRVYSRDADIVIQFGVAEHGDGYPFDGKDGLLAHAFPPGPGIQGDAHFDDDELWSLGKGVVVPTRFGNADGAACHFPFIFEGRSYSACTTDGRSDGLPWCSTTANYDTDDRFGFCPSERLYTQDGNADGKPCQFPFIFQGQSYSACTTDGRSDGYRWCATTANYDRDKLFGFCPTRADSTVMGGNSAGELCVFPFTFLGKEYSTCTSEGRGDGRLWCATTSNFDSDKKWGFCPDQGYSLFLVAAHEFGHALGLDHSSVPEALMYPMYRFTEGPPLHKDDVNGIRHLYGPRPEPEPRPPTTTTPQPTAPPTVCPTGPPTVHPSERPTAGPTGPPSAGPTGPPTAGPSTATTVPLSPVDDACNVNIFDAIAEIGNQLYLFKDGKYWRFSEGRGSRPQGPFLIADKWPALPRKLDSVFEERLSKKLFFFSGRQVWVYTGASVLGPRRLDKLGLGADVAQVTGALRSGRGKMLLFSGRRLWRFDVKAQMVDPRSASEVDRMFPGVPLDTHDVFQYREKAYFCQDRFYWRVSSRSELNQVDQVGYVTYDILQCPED
A further assay addresses T1, MMP-2 (Homo sapiens, UniProt P08253).
T1 sequence (P08253 110-660): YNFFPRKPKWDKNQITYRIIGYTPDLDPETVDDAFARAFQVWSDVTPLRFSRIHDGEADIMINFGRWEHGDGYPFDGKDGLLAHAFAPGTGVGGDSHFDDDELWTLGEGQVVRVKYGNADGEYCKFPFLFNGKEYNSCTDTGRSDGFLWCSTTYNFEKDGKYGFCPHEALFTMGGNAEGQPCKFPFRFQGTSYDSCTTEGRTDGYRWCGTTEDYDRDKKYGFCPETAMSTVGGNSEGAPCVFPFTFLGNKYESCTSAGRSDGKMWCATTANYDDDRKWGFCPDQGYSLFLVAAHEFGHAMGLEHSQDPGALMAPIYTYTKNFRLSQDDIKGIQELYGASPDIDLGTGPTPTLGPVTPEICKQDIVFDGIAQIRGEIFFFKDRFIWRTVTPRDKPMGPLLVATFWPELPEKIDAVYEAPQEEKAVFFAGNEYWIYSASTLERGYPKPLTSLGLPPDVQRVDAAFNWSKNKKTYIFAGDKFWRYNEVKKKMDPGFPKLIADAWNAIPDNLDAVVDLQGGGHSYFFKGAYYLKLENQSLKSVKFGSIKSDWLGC
The description is as above. In kind it is biochemical. The settings on record: MMP2; individual phage substrate from the set of 1369 peptides; hyphen in the sequence marks the cleavage position.

Take ILLSP-LTASG: in the assay with MMP-9 [1], the “relative probability (RP)” value was found to be 4.611. The “Kobs” value at MMP-9 [2] came out at 1030.73 M⁻¹ s⁻¹; at MMP-2 it was 12792.1 M⁻¹ s⁻¹.
The corresponding values for ILVWN-YTASG are 30.7196, 12792.1 M⁻¹ s⁻¹ and 4922.1 M⁻¹ s⁻¹.
The corresponding values for IMHRA-LTASG are 18.7073, 9740.44 M⁻¹ s⁻¹ and 12792.1 M⁻¹ s⁻¹.
The corresponding values for KAPAH-LTASG are 44.1453, 12792.1 M⁻¹ s⁻¹ and 12792.1 M⁻¹ s⁻¹.
For the substance KDPKF-LTASG, in the assay with MMP-9 [1], the “relative probability (RP)” value is listed as 42.7484. Further, the “Kobs” value is 10866.7 M⁻¹ s⁻¹ at MMP-9 [2] and 4613.14 M⁻¹ s⁻¹ on MMP-2.
KFPAS-LTASG: in the assay on MMP-9 [1], the “relative probability (RP)” value turned out to be 46.2982. Besides, the “Kobs” value on MMP-9 [2] and on MMP-2 was 12792.1 M⁻¹ s⁻¹ each time.
For KFPWN-YTASG, the “relative probability (RP)” value in the assay on MMP-9 [1] is listed as 48.0713. Moreover, the “Kobs” value was 12792.1 M⁻¹ s⁻¹ at MMP-9 [2] and 2097.28 M⁻¹ s⁻¹ on MMP-2.
For the substance KGPSG-LTASG, in the assay on MMP-9 [1], the “relative probability (RP)” value was found to be 47.388. The “Kobs” value is 10866.7 M⁻¹ s⁻¹ at MMP-9 [2] and 12792.1 M⁻¹ s⁻¹ on MMP-2.
Regarding KHPYK-YTASG, in the assay on MMP-9 [1], the “relative probability (RP)” value is listed as 33.5853. Further, the “Kobs” value at MMP-9 [2] worked out at 12792.1 M⁻¹ s⁻¹; on MMP-2 it was 1816.46 M⁻¹ s⁻¹.
Consider KIPSA-LTASG, for which, in the assay on MMP-9 [1], the “relative probability (RP)” value is reported as 47.6113. The figures for the “Kobs” value at MMP-9 [2] and on MMP-2 were 9740.44 M⁻¹ s⁻¹ and 12792.1 M⁻¹ s⁻¹, respectively.
On the same counts, the results for KMPST-LTASG are 36.3405, 6396.07 M⁻¹ s⁻¹ and 12792.1 M⁻¹ s⁻¹.
On to KQLAS-LTASG, for which the “relative probability (RP)” value with MMP-9 [1] is 2.45. Further, the “Kobs” value at MMP-9 [2] was 690.17 M⁻¹ s⁻¹; on MMP-2, 12792.1 M⁻¹ s⁻¹.
With KRLAF-LTASG, the “relative probability (RP)” value in the assay with MMP-9 [1] amounted to 0.6348. Further, the “Kobs” value turned out to be 912.511 M⁻¹ s⁻¹ at MMP-9 [2] and 12792.1 M⁻¹ s⁻¹ on MMP-2.
The corresponding values for KRVYL-LTASG are 2.817, 2687.73 M⁻¹ s⁻¹ and 484.315 M⁻¹ s⁻¹.
In the case of KSISN-WTASG, the “relative probability (RP)” value in the assay with MMP-9 [1] is 0.06259. The “Kobs” value on MMP-9 [2] worked out at 84.609 M⁻¹ s⁻¹; at MMP-2 it was 10866.7 M⁻¹ s⁻¹.
Turning to KSPRP-YTASG, the “relative probability (RP)” value in the assay with MMP-9 [1] is 47.6856. The “Kobs” value at MMP-9 [2] and at MMP-2 was 12792.1 M⁻¹ s⁻¹ in each case.
As to KSPTG-LTASG, the “relative probability (RP)” value with MMP-9 [1] came out at 39.8897. The “Kobs” value at MMP-9 [2] was found to be 8321.48 M⁻¹ s⁻¹; at MMP-2, 10866.7 M⁻¹ s⁻¹.
On the same counts, the results for KVLSA-VTASG are 0.4242, 12792.1 M⁻¹ s⁻¹ and 12792.1 M⁻¹ s⁻¹.
On the same counts, the results for KYHAW-MTASG are 0.08727, 27.918 M⁻¹ s⁻¹ and 7386.83 M⁻¹ s⁻¹.
Take LAPRY-WTASG: the “relative probability (RP)” value in the assay on MMP-9 [1] stood at 27.5973. Also, the “Kobs” value at MMP-9 [2] and on MMP-2 was 12792.1 M⁻¹ s⁻¹ each time.
Take LGPSH-YTASG: the “relative probability (RP)” value in the assay with MMP-9 [1] worked out at 38.4805. The “Kobs” value at MMP-9 [2] and on MMP-2 was 12792.1 M⁻¹ s⁻¹ in each case.
For the substance LIPAW-LTASG, in the assay on MMP-9 [1], the “relative probability (RP)” value is on record as 46.2228. The “Kobs” value at MMP-9 [2] amounted to 10866.7 M⁻¹ s⁻¹; on MMP-2, 12792.1 M⁻¹ s⁻¹.
For the substance LIPTS-LTASG, in the assay on MMP-9 [1], the “relative probability (RP)” value was found to be 31.9505. For the same substance, the “Kobs” value at MMP-9 [2] and on MMP-2 was 12792.1 M⁻¹ s⁻¹ throughout.
As to LKVMN-YTASG, the “relative probability (RP)” value in the assay with MMP-9 [1] was 29.3662. Also, the “Kobs” value worked out at 12792.1 M⁻¹ s⁻¹ on MMP-9 [2] and 3637.04 M⁻¹ s⁻¹ on MMP-2.
In the case of LPPLG-FTASG, the “relative probability (RP)” value in the assay on MMP-9 [1] came out at 44.5202. Moreover, the “Kobs” value on MMP-9 [2] was 10866.7 M⁻¹ s⁻¹; at MMP-2, 12792.1 M⁻¹ s⁻¹.
On the same counts, the results for LQIGH-LTASG are 14.7862, 1870.4 M⁻¹ s⁻¹ and 12792.1 M⁻¹ s⁻¹.
With LQLAL-YTASG, the “relative probability (RP)” value with MMP-9 [1] is listed as 1.077. In addition, the “Kobs” value on MMP-9 [2] stood at 912.511 M⁻¹ s⁻¹; on MMP-2 it was 12792.1 M⁻¹ s⁻¹.
For the substance LVVRA-HTASG, the “relative probability (RP)” value in the assay with MMP-9 [1] came to 18.814. Moreover, the entries for the “Kobs” value on MMP-9 [2] and at MMP-2 were 5461.43 M⁻¹ s⁻¹ and 4082.43 M⁻¹ s⁻¹, respectively.
Take MALSS-LTASG: in the assay on MMP-9 [1], the “relative probability (RP)” value was 4.987. The results for the “Kobs” value at MMP-9 [2] and on MMP-2 were 0 M⁻¹ s⁻¹ and 7015.91 M⁻¹ s⁻¹, respectively.
On the same counts, the results for MFVRK-LTASG are 0, 4763.33 M⁻¹ s⁻¹ and 10866.7 M⁻¹ s⁻¹.
Take MGLAN-LTASG: the “relative probability (RP)” value in the assay on MMP-9 [1] amounted to 11.5381. In addition, the results for the “Kobs” value on MMP-9 [2] and at MMP-2 were 951.362 M⁻¹ s⁻¹ and 12792.1 M⁻¹ s⁻¹, respectively.
On the same counts, the results for MGPWF-MTASG are 35.6409, 9740.44 M⁻¹ s⁻¹ and 0 M⁻¹ s⁻¹.
As for MGPWG-MTASG, the “relative probability (RP)” value with MMP-9 [1] is 49.8335. Besides, the “Kobs” value on MMP-9 [2] was determined as 12792.1 M⁻¹ s⁻¹; at MMP-2, 4335.13 M⁻¹ s⁻¹.
On the same counts, the results for MPMGR-LTASG are 2.466, 113.394 M⁻¹ s⁻¹ and 4082.43 M⁻¹ s⁻¹.
In the case of MSLAT-LTASG, the “relative probability (RP)” value with MMP-9 [1] is listed as 0.7406. Besides, the “Kobs” value at MMP-9 [2] was 0 M⁻¹ s⁻¹; on MMP-2 it was 12792.1 M⁻¹ s⁻¹.
In the case of MSPKG-VTASG, the “relative probability (RP)” value in the assay on MMP-9 [1] worked out at 38.7703. Also, the “Kobs” value on MMP-9 [2] and at MMP-2 was 12792.1 M⁻¹ s⁻¹ each time.
Regarding MSPRK-FTASG, in the assay on MMP-9 [1], the “relative probability (RP)” value turned out to be 2.647. Further, the “Kobs” value at MMP-9 [2] and on MMP-2 was 12792.1 M⁻¹ s⁻¹ each time.
As to MWVLS-LTASG, in the assay on MMP-9 [1], the “relative probability (RP)” value turned out to be 27.5596. For the same substance, the “Kobs” value at MMP-9 [2] turned out to be 8941.32 M⁻¹ s⁻¹; on MMP-2 it was 12792.1 M⁻¹ s⁻¹.
On the same counts, the results for NAPNA-LTASG are 41.7392, 12792.1 M⁻¹ s⁻¹ and 12792.1 M⁻¹ s⁻¹.
Consider NGPYN-LTASG, for which the “relative probability (RP)” value with MMP-9 [1] came out at 49.1716. Also, the “Kobs” value turned out to be 12792.1 M⁻¹ s⁻¹ at MMP-9 [2] and 5461.43 M⁻¹ s⁻¹ at MMP-2.
NIPTR-LTASG: the “relative probability (RP)” value in the assay on MMP-9 [1] was 15.5872. Moreover, the “Kobs” value stood at 1327.88 M⁻¹ s⁻¹ at MMP-9 [2] and 12792.1 M⁻¹ s⁻¹ on MMP-2.
NPPSH-LTASG: in the assay with MMP-9 [1], the “relative probability (RP)” value worked out at 43.8368. The “Kobs” value at MMP-9 [2] and on MMP-2 was 12792.1 M⁻¹ s⁻¹ in each case.
Turning to NRPSW-VTASG, in the assay with MMP-9 [1], the “relative probability (RP)” value was 29.0809. The “Kobs” value on MMP-9 [2] was determined as 12792.1 M⁻¹ s⁻¹; at MMP-2, 9740.44 M⁻¹ s⁻¹.
On the same counts, the results for NSPMS-LTASG are 47.1282, 12792.1 M⁻¹ s⁻¹ and 12792.1 M⁻¹ s⁻¹.
As to NSPSD-LTASG, in the assay on MMP-9 [1], the “relative probability (RP)” value is reported as 38.1321. Besides, the “Kobs” value worked out at 9740.44 M⁻¹ s⁻¹ on MMP-9 [2] and 12792.1 M⁻¹ s⁻¹ on MMP-2.
On the same counts, the results for PCPTG-LTASG are 39.8897, 3253.29 M⁻¹ s⁻¹ and 8321.48 M⁻¹ s⁻¹.
On the same counts, the results for PKLAA-ITASG are 1.188, 0 M⁻¹ s⁻¹ and 12792.1 M⁻¹ s⁻¹.
The corresponding values for PKPAR-LTASG are 40.1634, 12792.1 M⁻¹ s⁻¹ and 12792.1 M⁻¹ s⁻¹.
For PQMGS-LTASG, the “relative probability (RP)” value in the assay on MMP-9 [1] is on record as 3.398. The “Kobs” value at MMP-9 [2] was determined as 201.585 M⁻¹ s⁻¹; on MMP-2, 12792.1 M⁻¹ s⁻¹.
The corresponding values for PSLAE-LTASG are 0.4438, 654.784 M⁻¹ s⁻¹ and 8941.32 M⁻¹ s⁻¹.
On the same counts, the results for PSLGQ-LTASG are 2.507, 56.119 M⁻¹ s⁻¹ and 12792.1 M⁻¹ s⁻¹.
With PTLQY-LTASG, in the assay on MMP-9 [1], the “relative probability (RP)” value is reported as 2.48. In addition, the “Kobs” value came out at 585.336 M⁻¹ s⁻¹ on MMP-9 [2] and 12792.1 M⁻¹ s⁻¹ on MMP-2.
On the same counts, the results for PTPRS-YTASG are 44.546, 12792.1 M⁻¹ s⁻¹ and 7386.83 M⁻¹ s⁻¹.
On the same counts, the results for PTWRG-LTASG are 37.3667, 12792.1 M⁻¹ s⁻¹ and 5269.78 M⁻¹ s⁻¹.
